Target: Concanavalin A (Canavalia ensiformis, UniProt P02866)
Test: Screening of acyl hydrazone libraries against Concanavalin A, competitive binding assay
Experimental: The library was then made up of one part (40 μL) of each of these solutions, buffered with sodium acetate buffer (50 μL, 1 M, pH 4.0), and diluted with water (510 μL) to a final concentration of 1 mM of each building block, and 50 mM buffer. The resulting libraries were allowed to equilibrate for one week at room temperature to assure complete reaction, and used directly, or following concentration/dilution, in the subsequent screening tests.

NNC(=O)CCCCCCCCC(=O)NN [SED, sebacoyldihydrazide]
contribution of building block to the binding to Concanavalin A: important contributions to the binding

— patent US20040043417A1, “Generation and screening of a dynamic combinatorial library” (priority 2000, published 2004)
